Measured values reported in US5750146A, “Translucent collagen formulations with a cytotoxic drug” (Matrix Pharmaceutical, Inc., priority 1995, dated 1998).

Legend:
Type in all cases: physicochemical
collagen = assay: Differential Scanning Calorimetry (DSC) scan of collagen transition temperature; settings: for compatibility of cytotoxic drug with collagen: judged from collagen transition temperature
Experimental: The phase change is typically a change in the fibril size of the collagen in the composition and can be readily determined by a peak in conventional Differential Scanning Calorimetry (DSC) scans of the aqueous collagen composition. For the purposes of this application, transition temperatures measured by DSC are determined under the following conditions: heating at 10°C. per minute at 25 psi nitrogen (N2) using a DSC 10 instrument available from TA Industries, New Castle, Del., USA.
An aqueous collagen composition was prepared by combining requisite amounts of components under aseptic conditions to provide for an aqueous collagen composition comprising 6.5 weight percent collagen, 0.1M sodium phosphates and 0.045M sodium chloride. A DSC scan of the resulting composition was conducted by adding an aliquot of the composition to the sample holder (DSC pan), hermetically sealing the sample holder, and then placing the holder into a Differential Scanning Calorimeter (Model No. DSC 10 available from TA Instruments, New Castle, Del., USA). The calorimeter measures the transition temperature correlating to a phase change in the collagen composition by recording the temperature where excess heat over baseline is either absorbed or released by the composition.
The DSC scan of this composition was then conducted at from 30° to 70° C. at the rate of 10° C. per minute and the results are illustrated in FIG. 1.
Two additional aqueous compositions were prepared as above with the exception that fluorouracil was incorporated into each of these compositions and the resulting composition comprised collagen (2.2 weight percent), fluorouracil (33.3 mg/mL), 0.033M sodium phosphates and 0.015 M sodium chloride. The compositions were formulated by mixing under aseptic conditions, until homogeneous, 1 volume of an aqueous collagen composition comprising 6.5 weight percent collagen, 0.1M sodium phosphate and 0.045M sodium chloride with 2 volumes of a fluorouracil solution (50 mg/mL) at ambient conditions by recirculation through a static mixer and with magnetic stirring. […]

[1] = optical appearance of aqueous collagen compositions on storage
Experimental: Mixing was conducted by repeated transfers between two syringes connected by a mixing adapter. […] The results of these scans are illustrated in FIG. 5 and 6, respectively.
A second study was conducted to determine the amount of fluorouracil required to effect clarification on an opaque aqueous collagen composition. Specifically, aqueous collagen compositions were formulated to contain collagen (21.7 mg/mL), 0.033M phosphate buffer and varying amounts of fluorouracil. Each composition was then stored at about 2° C. to 8° C. for 17 days and the optical appearance of the composition measured periodically.
Specifically, in this example, the concentration of methotrexate in the collagen composition was varied and the collagen compositions were stored for 1 day and 3 days at either at 2° C. to 8° C. or at room temperature. The results at 3 days were the same as those found after 1 day and, accordingly, Table III below sets forth only the results from day 1.
A second study was conducted by preparing collagen compositions having 0.033M potassium phosphate buffer and […]. The pH of the solution was adjusted by the addition of HCl or NaOH as necessary to modify the pHs of the compositions to approximately 5, 7, 8 and 9. The compositions were stored at either room temperature or at 2-8° C. The optical appearance of these compositions was evaluated at 1 and 11 days after storage.

[2] = optical absorbance at 410 nm (optical opacity) of aqueous collagen compositions, 1 mm pathlength; settings: 0.25M additive, 6.5 weight percent collagen, pH 9.1, 2° to 8° C., 10 minutes
Experimental: Aliquots (0.5 mL) of each of the compositions were placed in microcuvet having a 1 mm pathlength at different temperatures for 10 minutes wherein the first aliquot was stored at about 12° C, the second aliquot was stored at about 8° C. and the third aliquot was stored at about 4° C. The optical opacity of each sample was then measured at 30 second intervals by determining the absorbance of light (410 nm) through the microcuvet. Lower absorbance in each case corresponds to greater optical clarity at 410 nm.
Three identical aqueous collagen compositions were prepared as above with the exception that the amount of fluorouracil incorporated into the compositions were varied to be 16.65 mg/mL, 22.2 mg/mL and 33.3 mg/mL respectively. The resulting compositions were stored at 4° C. as aliquots (0.5 mL) in microcuvets having a 1 mm pathlength for 10 minutes and the optical opacity of each sample was measured at 30 second intervals by determining the absorbance of light (410 nm) through the microcuvet. Lower absorbance in each case corresponds to greater optical clarity at 410 nm.
Both compositions were then stored at from about 2° to 8° C. as aliquots (0.5 mL) in microcuvets having a 1 mm pathlength for 10 minutes and the optical opacity of each sample was measured at 15 second intervals by determining the absorbance of light (410 nm) through the microcuvet. […]

| Compound | compatibility of cytotoxic drug with collagen (collagen) | effect of refrigeration and high concentration on optical clarity ([1]; refrigeration, high concentrations of methotrexate) | cross-linking to collagen (increase in transition temperature over time) (collagen; room temperature, up to 8 hours) | effect of additive on clarifying the collagen composition (FIG. 11) [2] | clarifying effect on opaque collagen composition ([1]; fluorouracil at 20 mg/mL, 2° C. to 8° C.) |
| --- | --- | --- | --- | --- | --- |
| CN(Cc1cnc2nc(N)nc(N)c2n1)c1ccc(C(=O)N[C@@H](CCC(=O)O)C(=O)O)cc1 [methotrexate] | compatible cytotoxic drug | both refrigeration and high concentrations of methotrexate are effective in effecting optical clarity |  |  |  |
| N.N.[Cl][Pt][Cl] [cisplatin, cis-diamino dichlororplatinum (II)] |  |  | cross-linking (i.e., covalent bonding) of the cisplatin to the collagen |  |  |
| O=c1[nH]cc(F)c(=O)[nH]1 [fluorouracil, 5-fluoro-2,4-(1H, 3H)pyrimidinedione] | compatible cytotoxic drug |  |  | only fluorouracil has any significant effect on clarifying the collagen composition | some clarifying affect on the opaque collagen composition |
